# Assay results taken from patent publication US11491134B2, “Composition for inhibiting skin cell proliferation and/or anti-inflammation method for inhibiting skin cell proliferation and/or anti-inflammation and method for treating skin diseases and/or inflammatory diseases” (Industrial Technology Research Institute, priority 2019, dated 2022).
# Test system: macrophages, RAW264.7 cells
# Experiment: Inhibition rate on inflammation (anti-inflammatory activity): nitric oxide, Griess reagent, LPS-treated macrophages
# Assay type: cell-based
# Conditions: Mus musculus; for inhibition at 1.5625 µM: luteolin 1.5625 μM/0.45 μg/mL; for inhibition at 3.125 µM: luteolin 3.125 μM/0.89 μg/mL; for inhibition at 6.25 µM: luteolin 6.25 μM/1.79 μg/mL; for inhibition at 12.5 µM: luteolin 12.5 μM/3.58 μg/mL; for inhibition at 25 µM: luteolin 25 μM/7.16 μg/mL; for inhibition at 50 µM: luteolin 50 μM/14.31 μg/mL; for inhibition at 0.3125 µM: luteolin 0.3125 μM/0.09 μg/mL; for inhibition at 0.625 µM: luteolin 0.625 μM/0.18 μg/mL; for inhibition at 1.25 µM: luteolin 1.25 μM/0.36 μg/mL; for inhibition at 2.5 µM: luteolin 2.5 μM/0.72 μg/mL; for inhibition at 5 µM: luteolin 5 μM/1.43 μg/mL; for inhibition at 100 µM: luteolin 100 μM/28.62 μg/mL
# Protocol: Dimethyl sulfoxide (DMSO) was used as a solvent to prepare apigenin test samples with different concentrations and luteolin test samples with different concentrations. 9 batches of experiments were performed, which respectively were Batch 1 to Batch 9. There were 6 independent experiments in each batch of experiments. In each independent experiment, inhibition rate of an apigenin test sample with a specific concentration on inflammation and inhibition rate of a luteolin test sample with a specific concentration on inflammation were determined, and inhibition rate of a combination of an apigenin test sample with the said specific concentration and a luteolin test sample with the said specific concentration on inflammation was determined. Between the independent experiments, concentrations of apigenin test samples used were different, and concentrations of luteolin test samples used were also different, however, mole ratios or weight ratios of apigenin test samples to luteolin test samples were the same. Moreover, between the batches of experiments, mole ratios or weight ratios of apigenin test samples to luteolin test samples were different. 5×10^4 macrophages, RAW264.7 cells, were inoculated in a 96-well culture plate and then placed in a 37° C. and 5% CO2 incubator for culturing overnight. After overnight culture, the supernatant was removed, and lipopolysaccharide (LPS) (50 ng/mL) and a test sample was added to the cells (refer to Table 2, and the cells of the induced group were treated with lipopolysaccharide and dimethyl sulfoxide while the cells of the control group were only treated with dimethyl sulfoxide) for reaction for 24 hours. Thereafter, the supernatant of each well in the culture plate was transferred to a new culture plate and reacted with Griess reagent (Promega, Cat. No. G2930), respectively, and then the absorbance of each well of the culture plate was determined at 540 nm by a continuous wavelength microplate reader to evaluate the content of nitric oxide (NO), and anti-inflammatory activity was calculated through the following formula: Anti-inflammation=(Induced group540 nm−Experimental group540 nm)/(Induced group540 nm−Control group540 nm) In this experiment, the synergistic effects of apigenin and luteolin were evaluated by CalcuSyn software (BIOSOFT). CalcuSyn software is an analysis software which is commonly used to analyze the drug dosage effect of single drug and multiple drugs at present. CalcuSyn software can be used to analyze drug complex interactions and automatically quantify various phenomena such as synergism and inhibition. CalcuSyn software can process the data of individual drugs and combination drugs with constant-ratio or on-constant-ratio, and can evaluate the interaction of combination drugs by the combination index (CI) (Chou and Talalay, Adv. Enzyme Regul. 22:27-55 (1984) calculated by CalcuSyn software. Calculation formula for the combination index is shown in the following: Combination index=C1/IC1+C2/IC2 C1 and C2 are the respective concentrations of the first compound and the second compound at which the activity of achieving a specific physiological or medical purpose is 50% (or 75%, or 90%) when the first compound and the second compound are analyzed in combination; IC1 and IC2 are the respective concentrations at which the activity of achieving a specific physiological or medical purpose of the first compound and the second compound is 50% (or 75%, or 90%) when the first compound and the second compound are independently analyzed. […]
smiles,measurement,setting,value
"O=c1cc(-c2ccc(O)c(O)c2)oc2cc(O)cc(O)c12 [Luteolin, luteolin]",inhibition at 1.5625 µM,"RAW264.7, Batch 1",0.1%
same,inhibition at 3.125 µM,"RAW264.7, Batch 1",21.4%
same,inhibition at 6.25 µM,"RAW264.7, Batch 1",37.2%
same,inhibition at 12.5 µM,"RAW264.7, Batch 1",56.3%
same,inhibition at 25 µM,"RAW264.7, Batch 1",84.1%
same,inhibition at 50 µM,"RAW264.7, Batch 1",99.9%
same,inhibition at 0.78 µM,"RAW264.7, Batch 2, luteolin 0.78 μM/0.22 μg/mL",0.1%
same,inhibition at 1.5625 µM,"RAW264.7, Batch 2",5.8%
same,inhibition at 3.125 µM,"RAW264.7, Batch 2",15.4%
same,inhibition at 6.25 µM,"RAW264.7, Batch 2",29.9%
same,inhibition at 12.5 µM,"RAW264.7, Batch 2",48.8%
same,inhibition at 25 µM,"RAW264.7, Batch 2",75.7%
same,inhibition at 0.3125 µM,"RAW264.7, Batch 3",0.1%
same,inhibition at 0.625 µM,"RAW264.7, Batch 3",0.1%
same,inhibition at 1.25 µM,"RAW264.7, Batch 3",0.1%
same,inhibition at 2.5 µM,"RAW264.7, Batch 3",5.1%
same,inhibition at 5 µM,"RAW264.7, Batch 3",49%
same,inhibition at 10 µM,"RAW264.7, Batch 3, luteolin 10 μM/2.86 μg/mL",80.3%
same,inhibition at 0.15625 µM,"RAW264.7, Batch 4, luteolin 0.15625 μM/0.04 μg/mL",0.1%
same,inhibition at 0.3125 µM,"RAW264.7, Batch 4",0.1%
same,inhibition at 0.625 µM,"RAW264.7, Batch 4",0.1%
same,inhibition at 1.25 µM,"RAW264.7, Batch 4",0.1%
same,inhibition at 2.5 µM,"RAW264.7, Batch 4",0.1%
same,inhibition at 5 µM,"RAW264.7, Batch 4",35.9%
same,inhibition at 0.078 µM,"RAW264.7, Batch 5, luteolin 0.078 μM/0.02 μg/mL",0.1%
same,inhibition at 0.156 µM,"RAW264.7, Batch 5, luteolin 0.156 μM/0.04 μg/mL",0.1%
same,inhibition at 0.3125 µM,"RAW264.7, Batch 5",9.8%
same,inhibition at 0.625 µM,"RAW264.7, Batch 5",3.1%
same,inhibition at 1.25 µM,"RAW264.7, Batch 5",0.5%
same,inhibition at 2.5 µM,"RAW264.7, Batch 5",16.1%
same,inhibition at 3.125 µM,"RAW264.7, Batch 6",11.1%
same,inhibition at 6.25 µM,"RAW264.7, Batch 6",40.8%
same,inhibition at 12.5 µM,"RAW264.7, Batch 6",67.1%
same,inhibition at 25 µM,"RAW264.7, Batch 6",89.6%
same,inhibition at 50 µM,"RAW264.7, Batch 6",99.9%
same,inhibition at 100 µM,"RAW264.7, Batch 6",99.9%
same,inhibition at 3.125 µM,"RAW264.7, Batch 7",13.3%
same,inhibition at 6.25 µM,"RAW264.7, Batch 7",43.9%
same,inhibition at 12.5 µM,"RAW264.7, Batch 7",70.2%
same,inhibition at 25 µM,"RAW264.7, Batch 7",89.3%
same,inhibition at 50 µM,"RAW264.7, Batch 7",99.9%
same,inhibition at 100 µM,"RAW264.7, Batch 7",99.9%
same,inhibition at 3.125 µM,"RAW264.7, Batch 8",8.9%
same,inhibition at 6.25 µM,"RAW264.7, Batch 8",34.4%
same,inhibition at 12.5 µM,"RAW264.7, Batch 8",67.9%
same,inhibition at 25 µM,"RAW264.7, Batch 8",90.4%
same,inhibition at 50 µM,"RAW264.7, Batch 8",99.9%
same,inhibition at 100 µM,"RAW264.7, Batch 8",99.9%
same,inhibition at 1.5625 µM,"RAW264.7, Batch 9",4.9%
same,inhibition at 3.125 µM,"RAW264.7, Batch 9",26.5%
same,inhibition at 6.25 µM,"RAW264.7, Batch 9",67%
same,inhibition at 12.5 µM,"RAW264.7, Batch 9",87%
same,inhibition at 25 µM,"RAW264.7, Batch 9",94.2%
same,inhibition at 50 µM,"RAW264.7, Batch 9",98.3%
